In patent publication US20100286076A1, “ECTOPARASITICIDAL METHODS AND FORMULATIONS” (priority 2009, published 2010):

How the values were obtained:
[1] = test system: adult cat flea, Ctenocephalides felis; test: Oral administration per os to dogs, experimental adult cat flea infestation, comb counts; type: in vivo
Protocol: Oral administration per os to dogs. Given the above data, investigation into oral efficacy in dogs was begun. The investigation was conducted to evaluate 1) efficacy for a point dose of 30 mg/kg, against experimental, concurrent infestations with the adult cat flea, Ctenocephalides felis; adult stage American dog ticks, Dermacentor variabilis; and adult stage kennel ticks, Rhipicephalus sanguineus; 2) plasma concentrations of the 30 mg/kg treated dogs; and 3) efficacy for point dosages of either 50 mg/kg or 100 mg/kg, against experimental infestations with adult stage kennel ticks, R. sanguineus.
Sixteen dogs were selected for two groups of eight dogs (4 male: 4 female) per group. One treatment group received spinetoram, while the other group was left untreated. The dogs were housed individually in concrete-floored chain-link kennels both inside and outside. During the study period the dogs were fed a dry dog chow, except for the day of treatment (day 0) when they received wet canned food. The dogs had ad libitum access to water.
The first group on day 0 received one or more gelatin capsules containing spinetoram powder by mouth, in the amount of 30 mg/kg, while the untreated group received placebo. For the evaluation of the higher doses (50 and 100 mg/kg) for efficacy against R. sanguineus, dogs from the 30 mg/kg group were re-dosed at the higher levels approximately 2.5 months after the low dose administration, once the flea efficacy data had been collected.
Each dog was experimentally infested with about 100 adult fleas, and 50 ticks of each species on test days—1,5,12,19, 28, 35, and 42, with additional flea infestations conducted on days 49 and 56. Knockdown assessments against both ticks and fleas were conducted 24 hours after dosing. All subsequent counts were conducted 48 hours after infestation. For the higher doses, the dogs were infested with around 50 R. sanguineus ticks one day before re-dosing and again 5 days post re-dosing, with comb counts conducted approximately 24 hours thereafter. Knockdown activity (Day 1) was determined using 24 hr post-dosing comb counts. For all post-treatment residual tick counts, the comb count occurred 48 hours post infestation. Blood samples were drawn on days 14, 21, 28, and 35 to determine concentration of spinetoram in plasma.

[2] = test system: Ctenocephalides felis; test: Pulse vs. single dose administration per os to dogs, flea infestation comb counts; type: in vivo
Protocol: Pulse vs. Single dose administration per os to dogs/Ctenocephalides felis Another dog study was undertaken to evaluate the effect on flea infestation of 1) oral administration of a single point dose of 60 mg/kg; 2) oral administration of a pulsed dosing scheme of 20 mg/kg TID every 2 hours for one day; 3) oral administration of a pulsed dosing scheme of 20 mg/kg TID every 4 hours for one day; and 4) post-treatment plasma concentration of spinetoram.
Four treatment groups of 8 dogs each (4 male: 4 female) were dosed spinetoram as follows:
Treatment Group 1: 60 mg/kg, single dose
Treatment Group 2: 60 mg/kg, (20 mg/kg every 2 hours, three times)
Treatment Group 3: 60 mg/kg, (20 mg/kg every 4 hours, three times)
Treatment Group 4: 0 mg/kg, (negative control)
The dogs were housed individually in concrete-floored chain-link kennels both inside and outside. During the study period the dogs were fed a dry dog chow, except for two days prior to and the day of treatment (day 0) when they received wet canned food. The dogs had ad libitum access to water.
The treated dogs received one or more gelatin capsules containing technical active spinetoram powder by mouth, with treatment group 4 receiving placebo. Each dog was experimentally infested with about 100 fleas on test days—1,5,12,19, 28, 35, 42, 49, and 56. Knockdown assessments were conducted 24 hours after dosing, with residual efficacy evaluated subsequently at 48 hours after each subsequent infestation. The day 1 comb count served to determine the initial/knockdown efficacy, approximately 24 hours after the 60 mg/kg dose, or the first of the pulse dose. Blood samples were drawn to determine concentration of spinetoram in plasma.

Spinetoram was tested, and the “geometric mean percent flea reduction, Day 7” value ([1]; oral 30 mg/kg, Day 7) was 100%, the “geometric mean percent flea reduction, Day 14” value ([1]; oral 30 mg/kg, Day 14) was 100% and the “geometric mean percent flea reduction, Day 21” value ([1]; oral 30 mg/kg, Day 21) was 99.5%. The “geometric mean percent flea reduction, Day 30” value ([1]; oral 30 mg/kg, Day 30) was 100%, the “geometric mean percent flea reduction, Day 37” value ([1]; oral 30 mg/kg, Day 37) was 98.9% and the “geometric mean percent flea reduction, Day 44” value ([1]; oral 30 mg/kg, Day 44) was 99.7%. For the same substance, the “geometric mean percent flea reduction, Day 51” value ([1]; oral 30 mg/kg, Day 51) was 98.2%, the “geometric mean percent flea reduction, Day 58” value ([1]; oral 30 mg/kg, Day 58) was 96.9% and the “geometric mean percent flea reduction, Knockdown” value ([1]; oral 30 mg/kg, Knockdown) was 99.7%. The residual control ([1]; oral point dose 30 mg/kg, extends beyond 8 weeks) was greater than 97%, the “geometric mean live adult flea count” value ([2]; oral 20 mg/kg TID@2 h, Day 1) was 0.0 and the “geometric mean percent reduction in live adult flea counts compared to the untreated control group” value (“geometric mean percent reduction” for short) ([2]; oral 20 mg/kg TID@2 h, Day 1) was “(100) percent”. The “geometric mean live adult flea count” value ([2]; oral 20 mg/kg TID@2 h, Day 7) was 0.0, the “geometric mean percent reduction” value ([2]; oral 20 mg/kg TID@2 h, Day 7) was “(100) percent” and the “geometric mean live adult flea count” value ([2]; oral 20 mg/kg TID@2 h, Day 14) was 0.0. The “geometric mean percent reduction” value ([2]; oral 20 mg/kg TID@2 h, Day 14) was “(100) percent”, the “geometric mean live adult flea count” value ([2]; oral 20 mg/kg TID@2 h, Day 21) was 0.0 and the “geometric mean percent reduction” value ([2]; oral 20 mg/kg TID@2 h, Day 21) was “(100) percent”. For the same substance, the “geometric mean live adult flea count” value ([2]; oral 20 mg/kg TID@2 h, Day 30) was 0.0, the “geometric mean percent reduction” value ([2]; oral 20 mg/kg TID@2 h, Day 30) was “(100) percent” and the “geometric mean live adult flea count” value ([2]; oral 20 mg/kg TID@2 h, Day 37) was 0.0. For the same substance, the “geometric mean percent reduction” value ([2]; oral 20 mg/kg TID@2 h, Day 37) was “(100) percent”, the “geometric mean live adult flea count” value ([2]; oral 20 mg/kg TID@2 h, Day 44) was 0.0 and the “geometric mean percent reduction” value ([2]; oral 20 mg/kg TID@2 h, Day 44) was “(100) percent”. The “geometric mean live adult flea count” value ([2]; oral 20 mg/kg TID@2 h, Day 51) was 0.0, the “geometric mean percent reduction” value ([2]; oral 20 mg/kg TID@2 h, Day 51) was “(100) percent” and the “geometric mean live adult flea count” value ([2]; oral 20 mg/kg TID@2 h, Day 58) was 0.0. For the same substance, the “geometric mean percent reduction” value ([2]; oral 20 mg/kg TID@2 h, Day 58) was “(100) percent”, the “geometric mean live adult flea count” value ([2]; oral 20 mg/kg TID@2 h, Day 72) was 0.0 and the “geometric mean percent reduction” value ([2]; oral 20 mg/kg TID@2 h, Day 72) was “(100) percent”. The “geometric mean live adult flea count” value ([2]; oral 20 mg/kg TID@2 h, Day 86) was 6.4, the “geometric mean percent reduction” value ([2]; oral 20 mg/kg TID@2 h, Day 86) was “(91.7) percent” and the “geometric mean live adult flea count” value ([2]; oral 20 mg/kg TID@2 h, Day 93) was 2.5. The “geometric mean percent reduction” value ([2]; oral 20 mg/kg TID@2 h, Day 93) was “(96.7) percent”, the “geometric mean live adult flea count” value ([2]; oral 20 mg/kg TID@2 h, Day 100) was 10.0 and the “geometric mean percent reduction” value ([2]; oral 20 mg/kg TID@2 h, Day 100) was “(88.0) percent”. For the same substance, the “geometric mean live adult flea count” value ([2]; oral 20 mg/kg TID@2 h, Day 107) was 4.8, the “geometric mean percent reduction” value ([2]; oral 20 mg/kg TID@2 h, Day 107) was “(94.1) percent” and the “geometric mean live adult flea count” value ([2]; oral 20 mg/kg TID@4 h, Day 1) was 0.0. For the same substance, the “geometric mean percent reduction” value ([2]; oral 20 mg/kg TID@4 h, Day 1) was “(100) percent”, the “geometric mean live adult flea count” value ([2]; oral 20 mg/kg TID@4 h, Day 7) was 0.0 and the “geometric mean percent reduction” value ([2]; oral 20 mg/kg TID@4 h, Day 7) was “(100) percent”. For the same substance, the “geometric mean live adult flea count” value ([2]; oral 20 mg/kg TID@4 h, Day 14) was 0.0, the “geometric mean percent reduction” value ([2]; oral 20 mg/kg TID@4 h, Day 14) was “(100) percent” and the “geometric mean live adult flea count” value ([2]; oral 20 mg/kg TID@4 h, Day 21) was 0.0. For the same substance, the “geometric mean percent reduction” value ([2]; oral 20 mg/kg TID@4 h, Day 21) was “(100) percent” and the “geometric mean live adult flea count” value ([2]; oral 20 mg/kg TID@4 h, Day 30) was 0.2.
